Laboratory results published in PMC9739815, “Akt/mTOR Targeting Activity of Resveratrol Derivatives in Non-Small Lung Cancer” (Molecules, 2022).

What was measured:
A549 cells = test: MTT cell viability assay, A549 cells; assay type: cell-based; conditions: Homo sapiens, 24 h, 0–200 µM, read-out: IC50 ± SEM of NSCLC cells, A549
Procedure: (§1) NSCLC cells were cultured overnight and treated with various concentrations (0–200 µM) of resveratrol derivatives (RD1-RD5) and resveratrol for 24 h, and then cell viability was analyzed by the 3-(4, 5-dimethylthiazolyl-2)-2, 5-diphenyltetrazolium bromide (MTT) assay to evaluate the percentage of cell viability. All of the data were calculated on the basis of the results of three replicated samples. […] The difference of the structure at C-4 was that the hydroxyl group of RD2 was modified to the methoxy group of RD3 and at C-3, the methoxy group of RD2 was changed to the hydroxyl group of RD3. […] Furthermore, resveratrol decreased cell viability in NSCLC cells (A549, H23, and H460) with the IC50 at more than 200 µM which was the same RD3 (Figure 2a–d). This different action on cancer cells as a result of chemical structure modification has provided an insight for the structure–activity relationship that may facilitate the further development of the potent compound from the lead structure of resveratrol derivatives. Cell viability was investigated by MTT colorimetric assay. All cell lines were cultured at the density of 1 × 10^4 cells per well in a 96-well tissue culture plate and incubated in an incubator. After that, cells were treated with various concentrations of RD1-RD5 for 24 h at 37 °C and analyzed by the MTT assay according to the manufacturer’s protocol (Sigma Chemical, St. Louis, MO, USA). In calculating the cell viability by a microplate reader (Anthros, Durham, NC, USA), the measured absorbance of treated cells were divided by the value of untreated cells and are reported as a percentage.

H460 cells = test: MTT cell viability assay, H460 cells; assay type: cell-based; conditions: Homo sapiens, NCI-H460, 24 h, 0–200 µM, read-out: IC50 ± SEM of NSCLC cells, H460
Procedure: as §1

H23 cells = test: MTT cell viability assay, H23 cells; assay type: cell-based; conditions: Homo sapiens, NCI-H23, 24 h, 0–200 µM, read-out: IC50 ± SEM of NSCLC cells, H23
Procedure: as §1

p-Akt/Akt in H23 cells = test: Western blot of p-Akt/Akt, H23 cells; assay type: cell-based, human; conditions: 100 μM, 12 h, vs untreated control
Procedure: (§2) NSCLC cells (A549 and H23) were treated with RD2 and RD3 (10–100 μM) for 12 h. After which, all cells were collected and the expression levels of Akt, p-Akt, mTOR, and p-mTOR were investigated by Western blot analysis (Figure 5a, Figure 6a, Figure 7a and Figure 8a). […] Immunofluorescence staining of Akt, p-Akt, mTOR, and p-mTOR was performed in RD2 and RD3 treated cells. The results further confirm the effect of RD2 and RD3 on the Akt/mTOR pathway.
(§3) Western blotting was used to detect the presence of specific protein. Cells were seed at a density of 4 × 10^5 cells/well in 6 well plates overnight. Cells were treated with various concentrations RD1-RD5 were treated for 12 h. After treatment, the apoptosis cells were collected by centrifuging media with 1500 rpm for 5 min and aspirating supernatants. Then, cells were washed with cold 1× PBS and incubated with 1X RIPPA 40 µL containing 10× RIPA buffer 100 µL, protease inhibitors (PI) 100 µL, PMSF 10 µL, and Triton × 10 µL for 30 min on ice. BCA protein assay kit from Pierce Biotechnology (Rockford, IL, USA) analyzed protein concentrations. The extracted proteins were separated by 7.5–10% sodium dodecyl sulfate polyacrylamide gel electrophoresis (SDS-PAGE) and transferred to polyvinylidene difluoride membrane (PVDF). Then, the membranes were blocked with 5% non-fat milk powder for 2 h. After that, they were incubated with primary antibody at 4 °C Akt (#9272), phosphorylated Akt (#4060), mTOR (#2983S), and p-mTOR (#5536S) overnight. The membranes were washed with Tris-buffered saline/Tween 20 3 times and incubated with secondary antibodies for 2 h. Finally, the protein bands were detected using chemiluminescence substrate and exposed by Chemiluminescent ImageQuant LAS4000. Protein bands were analyzed using Image J software.

p-mTOR/mTOR in H23 cells = test: Western blot of p-mTOR/mTOR, H23 cells; assay type: cell-based, human; conditions: 100 μM, 12 h, vs untreated control
Procedure: as §2, §3

p-Akt/Akt in A549 cells = test: Western blot of p-Akt/Akt, A549 cells; assay type: cell-based, human; conditions: A549 cells, 100 μM, 12 h, vs untreated control
Procedure: as §2, §3

[1] = system: p-mTOR/mTOR in A549 cells; test: Western blot of p-mTOR/mTOR, A549 cells; assay type: cell-based, human; conditions: 100 μM, 12 h, vs untreated control
Procedure: as §2, §3

DP cells = test: MTT cell viability assay, normal dermal papilla (DP) cells; assay type: cell-based; conditions: 24 h
Procedure: To confirm the selective cytotoxicity of resveratrol derivatives (RD2 and RD3) in cancer cells, resveratrol derivatives (RD2 and RD3) and resveratrol were determined for the cytotoxic profile in normal human cells, dermal papilla (DP).
Cell viability was investigated by MTT colorimetric assay. All cell lines were cultured at the density of 1 × 10^4 cells per well in a 96-well tissue culture plate and incubated in an incubator. After that, cells were treated with various concentrations of RD1-RD5 for 24 h at 37 °C and analyzed by the MTT assay according to the manufacturer’s protocol (Sigma Chemical, St. Louis, MO, USA). In calculating the cell viability by a microplate reader (Anthros, Durham, NC, USA), the measured absorbance of treated cells were divided by the value of untreated cells and are reported as a percentage.

| IC50 (A549 cells) [µM] | IC50 (H460 cells) [µM] | SMILES | IC50 (H23 cells) [µM] | p-Akt/Akt protein expression levels (p-Akt/Akt in H23 cells) | p-mTOR/mTOR protein expression levels (p-mTOR/mTOR in H23 cells) | p-Akt/Akt protein expression levels (p-Akt/Akt in A549 cells) | p-mTOR/mTOR protein expression levels [1] | effect on cell viability percentages in DP cells (DP cells; normal human dermal papilla cells) | IC50 (DP cells; Human dermal papilla cell, 0–200 µM, read-out: IC50 ± SEM of DP cells) [µM] |
| --- | --- | --- | --- | --- | --- | --- | --- | --- | --- |
| 113 ± 25.5 | 122 ± 28.6 | COc1ccc(CCc2cc(OC)c(O)c(OC)c2)cc1O [RD4, 4-(3-hydroxy-4-methoxyphenethyl)-2,6-dimethoxyphenol] | 109 ± 17.3 | – | – | – | – | – | – |
| 185 ± 58.7 | 153 ± 59.6 | COc1cc(CCc2cc(OC)c(O)c(OC)c2)cc(OC)c1O [RD5, 4,4′-(ethane-1,2-diyl)bis(2,6-dimethoxyphenol)] | 82.6 ± 13.1 | – | – | – | – | – | – |
| > 200 | > 200 | Oc1ccc(C=Cc2cc(O)cc(O)c2)cc1 [Resveratrol, 3,5,4′-trihydroxystilbene] | > 200 | significant decrease | significant decrease | significant decrease | significant decrease | did not significantly affect | > 200 |
